Results from patent US8822455B2, “Fused aminodihydrothiazine derivatives” (Eisai R&D Management Co., Ltd., priority 2011, dated 2014).

System: Aβ42
Assay: In vitro cellular assay (Aβ42): quantification of Aβ peptide in culture of neurons from rat fetus brain (ELISA)
Type: cell-based
Conditions: Primary cortical neuron, 72 h, rat primary cortical neurons (embryonic day 18 Wistar), 3 days after addition of compound, read-out: Cell IC50
Protocol: In vitro Cellular Assay (Aβ42):
Quantification of AβPeptide in Culture of Neurons from Rat Fetus Brain
(1) Rat Primary Neuronal Culture
Primary neuronal cultures were prepared from the cerebral cortex of embryonic day 18 Wistar rats (Charles River, UK). Specifically, the embryos were aseptically removed from pregnant rats under ether anesthesia. The brain was isolated from the embryo and immersed in HBSS (Sigma Aldrich #H9269) containing 10 mM HEPES (Gibco #15630-056). The cerebral cortex was collected from the isolated brain under a stereoscopic microscope. The cerebral cortex fragments collected were enzymatically treated in an enzyme solution containing 0.05% trypsin-EDTA solution (GIBCO, #25300) at 37° C. for 20 minutes to disperse the cells. The cells were then washed twice and then gently resuspended in Neurobasal medium (Gibco #21103) supplemented with 2% B27 supplement (GIBCO #17504-044), 0.5 mM L-glutamine (GIBCO #25030), 1×N2 (GIBCO #17502-048), 100 ug/ml Pen/Strep (GIBCO 15140-122) and 5% heat inactivated FCS (PAA #A15-701). The cell dispersion was filtered through a 40-μm nylon mesh (BD Falcon #352340) to remove the remaining cell mass, and thus a neuronal cell suspension was obtained. The neuronal cell suspension was diluted with the medium above and then plated in a volume of 100 μL/well at an initial cell density of 3.25×10^5 cells/ml in poly-D-lysine coated 96-well culture plate (Greiner #655940). The plated cells were cultured in the culture plate at 37° C. in 5% CO2-95% air for 24 hrs. The total amount of the medium was replaced with ‘assay Neurobasal medium’ (as above excluding heat inactivated FCS), and then the cells were cultured for a further five days.
The drug was added to the culture plate on Day 6 of culture as follows. 8 point compound serial dilutions were generated in DMSO at a concentration of ×1000 that of the final assay concentration (FAC). Compound solutions were then prepared by adding 999 ul of ‘Assay Neurobasal media’ (as described in above section) to 1 ul of DMSO compound stock. The total amount of the medium was removed from each of the cell plate wells, and 200 μL/well of compound solution was added. The final DMSO concentration was 0.1%.
The cells were cultured for either 1 or 3 days after addition of the compound for ABx-40 and ABx-42 assays respectively. 150 μl of sample medium was collected and used as the ELISA sample.
Human/Rat β Amyloid (42) ELISA Kit Wako (#290-62601) and Human/Rat β Amyloid (40) ELISA Kit Wako (#294-62501) from Wako Pure Chemical Industries, Ltd. were used for Aβ ELISA Aβ ELISA was carried out according to the protocols recommended by the manufacturers, described in the documents accompanying the kits. The results were shown as percentage of the control groups and IC50 values for each compound were determined using four parameter logistic fit model using the XLFIT5 software package (IDBS).

Row | SMILES | IC50 [nM]
1 | C[C@H]1OC[C@]2(c3cc(-c4cccc(=O)[nH]4)ccc3F)N=C(N)SC[C@H]12 [Example 25, 6-(3-((4aS,5R,7aS)-2-amino-5-methyl-4a,5,7,7a-tetrahydro-4H-furo[3,4-d][1,3]thiazin-7a-yl)-4-fluorophenyl)pyridin-2(1H)-one] | 342
2 | C[C@H]1OC[C@]2(c3cc(-c4cncc(OC(F)F)c4)ccc3F)N=C(N)SC[C@H]12 [Example 26] | 64
3 | NC1=N[C@@]2(c3cc(-c4cncnc4)c(F)cc3F)CO[C@H](CF)[C@H]2CS1 [Example 27, (4aS,5S,7aS)-7a-(2,4-Difluoro-5-(pyrimidin-5-yl)phenyl)-5-(fluoromethyl)-4a,5,7,7a-tetrahydro-4H-furo[3,4-d][1,3]thiazin-2-amine] | 59
4 | NC1=N[C@@]2(c3cc(-c4cccnc4F)c(F)cc3F)CO[C@H](CF)[C@H]2CS1 [Example 28] | 46
5 | COc1cncc(-c2cc([C@]34CO[C@H](CF)[C@H]3CSC(N)=N4)c(F)cc2F)c1 [Example 29, (4aS,5S,7aS)-7a-(2,4-difluoro-5-(5-methoxypyridin-3-yl)phenyl)-5-(fluoromethyl)-4a,5,7,7a-tetrahydro-4H-furo[3,4-d][1,3]thiazin-2-amine] | 15
6 | NC1=N[C@@]2(c3cc(-c4ccc(F)nc4)c(F)cc3F)CO[C@H](CF)[C@H]2CS1 [Example 30, (4aS,5S,7aS)-7a-(2,4-difluoro-5-(6-fluoropyridin-3-yl)phenyl)-5-(fluoromethyl)-4a,5,7,7a-tetrahydro-4H-furo[3,4-d][1,3]thiazin-2-amine] | 223
